The values that follow come from patent publication US9586907B2, “Isothiocyanate compounds, pharmaceutical compositions, and uses thereof” (priority 2006, dated 2017).

In brackets after ≈: the same amount, converted by molar mass. Where only a bound is given, the exact number is not on record here.

Series [1] concerns human acute monocytic leukemia cells (THP1 cells). Nature of the series: Growth of THP1 cells, MTT metabolic assay. It counts as cell-based. The note with it: Homo sapiens, THP-1, 24 h, read-out: drop in cell viability. How it is done:
THP1 cells were either mock-treated (DMSO vehicle alone), or treated with increasing doses of new compounds 37 and 45, from 0 to 32 μg/mL. Cells were incubated in the presence of compound for 24 hours, and subsequently were assayed for total cell viability using an MTT, metabolic assay.
(In general: Tetrazolium dyes change colour on reduction, which living cells bring about.)

Series [2] concerns Candida albicans 5108^mdr. The series is described as follows: Anti-fungal MIC, Candida albicans 5108^mdr.
In series [3] the test system is human peritoneal macrophages infected with Mycobacterium tuberculosis H37Rv strain. The series is described as follows: In vitro infection model, cytotoxicity. The note with it: up to 1 μg/mL; Rifampicin control.
Series [4] concerns Cryptococcus neoformans CNH99. The series is described as follows: Anti-fungal MIC, Cryptococcus neoformans CNH99.
The test system of series [5] is Aspergillus fumigatus Rit 11. Nature of the series: Anti-fungal MIC, Aspergillus fumigatus Rit 11.
For series [6], the system named is Candida parapsilosis 22019. Nature of the series: Anti-fungal MIC, Candida parapsilosis 22019.
The next series relates to Candida albicans 90028. The series is described as follows: Anti-fungal MIC, Candida albicans 90028.
Series [7] concerns Bacillus cereus. The series is described as follows: Bactericidal/bacteriostatic activity (CFU), Bacillus cereus. It counts as cell-based.
Series [8] can be described thus: In vivo tolerance in mice. The settings on record: highest dose, 50 mg/kg.
For series [9], the system named is Candida crusei 6258^mdr. The series is described as follows: microbe, parasite or virus in culture. The settings on record: read-out: Anti-Fungal Activity (MIC).
Another series deals with Staphylococcus aureus. The series is described as follows: Bactericidal/bacteriostatic activity (CFU), Staphylococcus aureus. It counts as cell-based. The note with it: 1 to 2 hours, FIG. 2B.
Series [10] has as its system Aspergillus fumigatus Rit 1. Nature of the series: Anti-fungal MIC, Aspergillus fumigatus Rit 1.
In series [11] the test system is Bacillus cereus. The series is described as follows: Pre-incubation of compound in MHB medium, inhibitory activity against Bacillus cereus. The note with it: initial concentration equal to the MIC value; FIG. 5. It is filed as cell-based. The procedure: Preincubation of Compound 37 in Culture Medium and Its Effect on Growth-Inhibitory Activity. Compound 37 was added to liquid Muller-Hinton Broth (MHB) medium in microtiter plate to final concentration 2 mg/ml and incubated for the periods of time indicated in FIG. 5 before addition to cultures of B. cereus. After incubation for 20 h at 37° C., bacterial growth was assessed by measuring of the turbidity at 600 nm.
ITC compounds can react with amine- and thiol-containing components of the culture media with the formation of corresponding thioureas and dithiocarbamates. The effect of pre-incubation of Compound 37 in MHB medium on its inhibitory activity against Bacillus cereus was determined at an initial concentration equal to the MIC value. While no growth of the bacteria occurs upon immediate addition of the inhibitor, progressive growth is observed as a function of pre-incubation time.

In a further series the test system is Candida albicans 90030. The series is described as follows: Anti-fungal MIC, Candida albicans 90030.
The subject of another series is virus (92TH594). Nature of the series: Viral proliferation in PBMC, p24 viral antigen. It is filed as cell-based. The note with it: PBMC.
The subject of series [12] is Staphylococcus epidermidis BK12799. The series is described as follows: MIC, Staphylococcus epidermidis BK12799.
Series [13] deals with Mycobacterium tuberculosis H37Rv strain. Nature of the series: In vitro infection model, bacterial growth inhibition in infected macrophages. It is filed as cell-based. The note with it: M. tuberculosis H37Rv; up to 1 μg/mL; Rifampicin control. An excerpt: Rifampicin was used as a control for this experiment.
The next series has as its system Candida dlabrata 250^mdr. Nature of the series: Anti-fungal MIC, Candida dlabrata 250^mdr.
Series [14] has as its system Aspergillus fumigatus Rit 21. The series is described as follows: Anti-fungal MIC, Aspergillus fumigatus Rit 21.
Series [15] relates to Candida crusei 6258^mdr.
The mark [16] stands for this setting: compound 2.5 μg/ml, added to the cells after viral infection.
The mark [17] stands for this setting: compound 2.5 μg/ml, added to the cells before viral infection.
The mark [18] stands for this setting: compound 10 μg/ml, added to the cells after viral infection.
Setting [19] is: compound 10 μg/ml, added to the cells before viral infection.
Setting [20] is: Staphylococcus epidermidis BK12799, Gram +, 24 hours of incubation.

As to `S=C=NCc1ccc(CN=C=S)cc1` [Compound 37], the cytotoxicity at 8 µg/mL in series [1] is around 25%. For the same compound, the MIC in series [2] (Candida albicans, read-out: Anti-Fungal Activity (MIC)) was 0.5 µg/mL (≈ 2.27 µM); in [4] (Cryptococcus neoformans, CNH99, read-out: Anti-Fungal Activity (MIC)) it was below 1 µg/mL; in [5] (Aspergillus fumigatus, RIT11, read-out: Anti-Fungal Activity (MIC)), 0.5 µg/mL (≈ 2.27 µM); in series [6] (22019, read-out: Anti-Fungal Activity (MIC)), 0.5 µg/mL (≈ 2.27 µM); with Candida albicans 90028 (Candida albicans, 90028, read-out: Anti-Fungal Activity (MIC)), 0.5 µg/mL (≈ 2.27 µM); in the series with Candida crusei 6258^mdr [9], 0.5 µg/mL (≈ 2.27 µM). The MIC in series [10] (Aspergillus fumigatus, RIT1, read-out: Anti-Fungal Activity (MIC)) was 0.5 µg/mL (≈ 2.27 µM); in the series on Candida albicans 90030 (Candida albicans, 90030, read-out: Anti-Fungal Activity (MIC)), 0.5 µg/mL (≈ 2.27 µM); in series [12] (Staphylococcus epidermidis, BK12799, 24 h), 0.5 µg/mL (≈ 2.27 µM); in the series with Candida dlabrata 250^mdr (Candida, 48 h, read-out: Anti-Fungal Activity (MIC)) it was 0.125 µg/mL (≈ 0.567 µM); in series [14] (Aspergillus fumigatus, RIT21, read-out: Anti-Fungal Activity (MIC)) it was 0.5 µg/mL (≈ 2.27 µM). Also, the “cytotoxicity in infected macrophages” value in series [3] was “exhibited more toxicity”. Also, the “bacterial growth at 20 h” value with Bacillus cereus [7] (Compound at 4 μg/ml, data not shown) is given as “no bacterial growth was detected”. The “cell viability of Bacillus cereus (CFU)” value in the series on Bacillus cereus [7] (incubation 1 to 2 hours, FIG. 2A) is “dramatic decrease in cell viability”. For the same compound, in series [8], the “toxicity in treated mice” value is “no toxicity was observed”. Moreover, the “effect on Staphylococcus aureus cultures” value with Staphylococcus aureus is “bacteriostatic effect”. Also, in the series with Bacillus cereus [11], the “effect of pre-incubation in MHB medium on inhibitory activity” value is reported as “decrease of inhibition potency”. Further, the P24 values with virus (92TH594) (setting [16]) is 760 pg/mL; in the series on virus (92TH594) (setting [17]) it was 210 pg/mL; in the series on virus (92TH594) (setting [18]), 340 pg/mL; in the series with virus (92TH594) (setting [19]), 0 pg/mL. In addition, the “growth inhibitory activity in infected macrophages” value in series [13] is reported as “gave similar results”.
Regarding `S=C=NCCCCCCCN=C=S` [Compound 41, S═C═N—(CH2)7—N═C═S], the “Anti-Fungal Activity (MIC)” value in [2] (Candida albicans 5108^mdr) was 8 µg/mL; in series [4] (Cryptococcus neoformans CNH99), below 1 µg/mL; in [5] (Aspergillus fumigatus Rit 11) it was 4 µg/mL; in [6] (Candida parapsilosis 22019), 2 µg/mL; in the series with Candida albicans 90028 (Candida albicans 90028) it was 8 µg/mL; in the series with Candida crusei 6258^mdr [15], 2 µg/mL. The “Anti-Fungal Activity (MIC)” value in [10] (Aspergillus fumigatus Rit 1) is 4 µg/mL; in the series with Candida albicans 90030 (Candida albicans 90030), below 1 µg/mL; in the series on Candida dlabrata 250^mdr (Candida dlabrata 250^mdr), below 1 µg/mL; in series [14] (Aspergillus fumigatus Rit 21), 4 µg/mL. Besides, in series [12] (setting [20]), the MIC is 1 µg/mL (≈ 4.67 µM).
Turning to `S=C=NCCCCCCCCN=C=S` [Compound 42, S═C═N—(CH2)8—N═C═S], the “cytotoxicity in infected macrophages” value in [3] is given as “exhibited more toxicity”. In addition, in series [8], the “toxicity in treated mice” value is on record as “no toxicity was observed”. Besides, the P24 values with virus (92TH594) (setting [16]) was found to be 630 pg/mL; in the series with virus (92TH594) (setting [17]), 220 pg/mL; in the series with virus (92TH594) (setting [18]), 700 pg/mL; in the series on virus (92TH594) (setting [19]) it was 0 pg/mL. The MIC in [12] (setting [20]) stood at 2 µg/mL (≈ 8.76 µM). Also, in [13], the “growth inhibitory activity in infected macrophages” value is listed as “gave similar results”.
